The values that follow come from patent US12692254B2, “Benzimidazole inhibitors of PAD enzymes” (BRISTOL-MYERS SQUIBB COMPANY, priority 2018, dated 2026).

For the assay, the target named is human PAD4 (hPAD4) (Homo sapiens, UniProt Q9UM07). Nature of the assay: RFMS human PAD4 functional assay (rapid-fire mass spectrum). It is filed as biochemical. The following applies: 5 nM hPAD4 enzyme, 250 μM BAEE, 50 μM Calcium; 30 min preincubation, 90 min reaction at 37° C. Summed up: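 PAD4 (10 nM) preincubated 30 min with compound (top final 50 μM), then BAEE substrate added in pH 7.5 HEPES buffer with DTT, 50 μM calcium, TPEN; 90 min at 37° C. After TCA quench, citrulline derivatized with phenyl glyoxal (4 mM final, 30 min, 37° C) and quantified by RapidFire MS against internal standard.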
Chain of human PAD4 (hPAD4) (Q9UM07 whole entry): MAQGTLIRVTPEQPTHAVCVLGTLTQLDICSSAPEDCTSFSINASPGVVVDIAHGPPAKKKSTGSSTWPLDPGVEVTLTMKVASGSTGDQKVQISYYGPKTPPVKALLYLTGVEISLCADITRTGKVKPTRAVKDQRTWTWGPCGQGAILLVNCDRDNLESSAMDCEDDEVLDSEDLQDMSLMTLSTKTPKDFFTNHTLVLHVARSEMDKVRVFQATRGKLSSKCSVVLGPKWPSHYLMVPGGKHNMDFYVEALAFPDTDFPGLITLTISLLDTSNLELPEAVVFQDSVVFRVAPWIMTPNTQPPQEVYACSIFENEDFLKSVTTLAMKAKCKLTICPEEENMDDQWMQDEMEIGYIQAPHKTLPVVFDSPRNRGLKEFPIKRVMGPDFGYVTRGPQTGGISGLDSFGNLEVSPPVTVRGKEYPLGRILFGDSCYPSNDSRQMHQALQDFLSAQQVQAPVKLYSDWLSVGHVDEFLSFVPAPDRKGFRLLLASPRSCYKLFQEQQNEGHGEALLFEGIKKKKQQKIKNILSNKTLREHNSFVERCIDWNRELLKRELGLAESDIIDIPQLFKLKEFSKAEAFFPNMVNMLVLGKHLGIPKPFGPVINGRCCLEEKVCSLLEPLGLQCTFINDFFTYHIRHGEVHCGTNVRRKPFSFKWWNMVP

`COc1cncc(-n2cc(Cn3c(-c4cc5cccnc5n4CC4CC4)nc4cc(C(=O)N5CC6CCC5[C@@H]6N)cc(OC)c43)cn2)c1` (stereo partly drawn) [Example 352, (7R)-2-{2-[1-(cyclopropylmethyl)-1H-pyrrolo[2,3-b]pyridin-2-yl]-7-methoxy-1-{[1-(5-methoxypyridin-3-yl)-1H-pyrazol-4-yl]methyl}-1H-1,3-benzodiazole-5-carbonyl}-2-azabicyclo[2.2.1]heptan-7-amine]: the IC50 (as a rule, the concentration that gives 50% inhibition) was determined as 19 nM. With `COc1ccc2cc(-c3nc4cc(C(=O)N5C[C@H]6CC[C@@H]5[C@@H]6N)cc(OC)c4n3CC3CN(C(=O)c4cnc(C#N)nc4)C3)n(CC3CC3)c2n1` [Example 177, 5-[3-({5-[(1R,4R,7R)-7-amino-2-azabicyclo[2.2.1]heptane-2-carbonyl]-2-[1-(cyclopropylmethyl)-6-methoxy-1H-pyrrolo[2,3-b]pyridin-2-yl]-7-methoxy-1H-1,3-benzodiazol-1-yl}methyl)azetidine-1-carbonyl]pyrimidine-2-carbonitrile] the figure was 54 nM; with `COc1cc(C(=O)N2C[C@H](N)C[C@@H](F)C2)cc2nc(-c3cc4ccccc4n3CC3CC3)n(CC3CCC(=O)N3)c12` (stereo partly drawn) [Example 283, 5-({5-[(3R,5R)-3-amino-5-fluoropiperidine-1-carbonyl]-2-[1-(cyclopropylmethyl)-1H-indol-2-yl]-7-methoxy-1H-1,3-benzodiazol-1-yl}methyl)pyrrolidin-2-one], 895 nM; with `COc1cc(C(=O)N2CC3CCC2[C@@H]3N)cc2nc(-c3cc4cccnc4n3CC3CC3)n(CC3CN(C(=O)c4c(F)cccc4F)C3)c12` (stereo partly drawn) [Example 431, (7R)-2-{2-[1-(cyclopropylmethyl)-1H-pyrrolo[2,3-b]pyridin-2-yl]-1-{[1-(2,6-difluorobenzoyl)azetidin-3-yl]methyl}-7-methoxy-1H-1,3-benzodiazole-5-carbonyl}-2-azabicyclo[2.2.1]heptan-7-amine], 30 nM. Under `CCn1cc(Cn2c(-c3cc4ccccc4n3CC3CC3)nc3cc(C(=O)N4C[C@H](N)C[C@@H](F)C4)cc(OC)c32)cn1` [Example 487, (3R,5R)-1-{2-[1-(cyclopropylmethyl)-1H-indol-2-yl]-1-[(1-ethyl-1H-pyrazol-4-yl)methyl]-7-methoxy-1H-1,3-benzodiazole-5-carbonyl}-5-fluoropiperidin-3-amine] stands 46 nM; under `N#Cc1ccc(C(=O)N2CC(Cn3c(-c4cc5cccnc5n4CC4CC4)nc4cc(C(=O)N5CC6CCC5[C@@H]6N)cc(F)c43)C2)cc1` (stereo partly shown) [Example 462], 70 nM. `COc1cc(C(=O)N2C[C@H]3CC[C@@H]2[C@@H]3N)cc2nc(-c3cc4ccccc4n3CC3CC3)n(Cc3csc(C)n3)c12` [Example 269, (1R,4R,7R)-2-{2-[1-(cyclopropylmethyl)-1H-indol-2-yl]-7-methoxy-1-[(2-methyl-1,3-thiazol-4-yl)methyl]-1H-1,3-benzodiazole-5-carbonyl}-2-azabicyclo[2.2.1]heptan-7-amine]: the IC50 amounted to 127 nM. With `C/C=C/C(=O)N1CC(Cn2c(-c3cc4cccnc4n3CC3CC3)nc3cc(C(=O)N4C[C@H]5CC[C@@H]4[C@@H]5N)cc(OC)c32)C1` [Example 116, (2E)-1-[3-({5-[(1R,4R,7R)-7-amino-2-azabicyclo[2.2.1]heptane-2-carbonyl]-2-[1-(cyclopropylmethyl)-1H-pyrrolo[2,3-b]pyridin-2-yl]-7-methoxy-1H-1,3-benzodiazol-1-yl}methyl)azetidin-1-yl]but-2-en-1-one] the figure was 59 nM. With `COc1cc(C(=O)N2C[C@H]3CC[C@@H]2[C@@H]3N)cc2nc(-c3cc4cccnc4n3CC3CC3)n(CC3CN(c4ncc(C#N)cc4Br)C3)c12` [Example 29, 6-[3-({5-[(1R,4R,7R)-7-amino-2-azabicyclo[2.2.1]heptane-2-carbonyl]-2-[1-(cyclopropylmethyl)-1H-pyrrolo[2,3-b]pyridin-2-yl]-7-methoxy-1H-1,3-benzodiazol-1-yl}methyl)azetidin-1-yl]-5-bromopyridine-3-carbonitrile] the figure was 78 nM. With `COc1cc(C(=O)N2C[C@H]3CC[C@@H]2[C@@H]3N)cc2nc(-c3cc4ccccc4n3CC3CC3)n(CC3CN(C(=O)c4ccncc4)C3)c12` [Example 138, (1R,4R,7R)-2-{2-[1-(cyclopropylmethyl)-1H-indol-2-yl]-7-methoxy-1-{[1-(pyridine-4-carbonyl)azetidin-3-yl]methyl}-1H-1,3-benzodiazole-5-carbonyl}-2-azabicyclo[2.2.1]heptan-7-amine] the figure was 11 nM; with `COc1cc(C(=O)N2C[C@H]3CC[C@@H]2[C@@H]3N)cc2nc(-c3cc4cccnc4n3CC3CC3)n(C3CN(C(=O)c4ccnc(N)n4)C3)c12` [Example 101, (1R,4R,7R)-2-{1-[1-(2-aminopyrimidine-4-carbonyl)azetidin-3-yl]-2-[1-(cyclopropylmethyl)-1H-pyrrolo[2,3-b]pyridin-2-yl]-7-methoxy-1H-1,3-benzodiazole-5-carbonyl}-2-azabicyclo[2.2.1]heptan-7-amine], 125 nM; with `COc1cc(C(=O)N2CC3CCC2[C@@H]3N)cc2nc(-c3cc4cccnc4n3CC3CC3)n(Cc3cnn(-c4ccc[n+]([O-])c4)c3)c12` (stereo partly drawn) [Example 377, 3-[4-({5-[(7R)-7-amino-2-azabicyclo[2.2.1]heptane-2-carbonyl]-2-[1-(cyclopropylmethyl)-1H-pyrrolo[2,3-b]pyridin-2-yl]-7-methoxy-1H-1,3-benzodiazol-1-yl}methyl)-1H-pyrazol-1-yl]pyridin-1-ium-1-olate], 37 nM. Turning to `COc1cc(C(=O)N2C[C@H]3CC[C@@H]2[C@@H]3N)cc2nc(-c3cc4ccccc4n3CC3CC3)n(Cc3cc(C)nn3C)c12` [Example 252, (1R,4R,7R)-2-{2-[1-(cyclopropylmethyl)-1H-indol-2-yl]-1-[(1,3-dimethyl-1H-pyrazol-5-yl)methyl]-7-methoxy-1H-1,3-benzodiazole-5-carbonyl}-2-azabicyclo[2.2.1]heptan-7-amine], the IC50 stood at 22 nM. Under `COc1cc(C(=O)N2CC3CCC2[C@@H]3N)cc2nc(-c3cc4ccccc4n3CC3CC3)n(CC3CN(C(=O)c4ccc(C#N)nc4)C3)c12` (stereo partly drawn) [Example 415, 5-[3-({5-[(7R)-7-amino-2-azabicyclo[2.2.1]heptane-2-carbonyl]-2-{1-(cyclopropylmethyl)-1H-indol-2-yl]-7-methoxy-1H-1,3-benzodiazol-1-yl}methyl)azetidine-1-carbonyl]pyridine-2-carbonitrile] stands 41 nM; under `COc1cc(C(=O)N2CC3CCC2[C@@H]3N)cc2nc(-c3cc4ccccc4n3CC3CC3)n(Cc3ccccc3)c12` (stereo partly shown) [Example 270], 140 nM.

For the compound `COc1cc(C(=O)N2CC3CCC2[C@@H]3N)cc2nc(-c3cc4ccccc4n3CC3CC3)n(CC3CN(C(=O)[C@H]4C[C@@H]4C)C3)c12` (stereo partly drawn) [Example 172, (1R,4R,7R)-2-{2-[1-(cyclopropylmethyl)-1H-indol-2-yl]-7-methoxy-1-({1-[(1S,2S)-2-methylcyclopropanecarbonyl]aze-tidin-3-yl}methyl)-1H-1,3-benzodiazole-5-carbonyl}-2-azabicyclo[2.2.1]heptan-7-amine], the IC50 came to 42 nM. With `COc1cc(C(=O)N2CC3CCC2[C@@H]3N)cc2nc(-c3cc4cccnc4n3CC3CC3)n(CC3CN(C(=O)c4cccc(F)c4F)C3)c12` (stereo partly drawn) [Example 423, (7R)-2-{2-[1-(cyclopropylmethyl)-1H-pyrrolo[2,3-b]pyridin-2-yl]-1-{[1-(2,3-difluorobenzoyl)azetidin-3-yl]methyl}-7-methoxy-1H-1,3-benzodiazole-5-carbonyl}-2-azabicyclo[2.2.1]heptan-7-amine] the figure was 23 nM; with `COc1cc(C(=O)N2C[C@H]3CC[C@@H]2[C@@H]3N)cc2nc(-c3cc4cccnc4n3CC3CC3)n(CC3CN(C(=O)c4ccnc(F)c4)C3)c12` [Example 122, (1R,4R,7R)-2-{2-[1-(cyclopropylmethyl)-1H-pyrrolo[2,3-b]pyridin-2-yl]-1-{[1-(2-fluoropyridine-4-carbonyl)azetidin-3-yl]methyl}-7-methoxy-1H-1,3-benzodiazole-5-carbonyl}-2-azabicyclo[2.2.1]heptan-7-amine], 98 nM. With `COc1cc(C(=O)N2C[C@H](N)C[C@@H](F)C2)cc2nc(-c3cc4cccnc4n3CC3CC3)n(Cc3cnn(-c4cnccn4)c3)c12` [Example 397, (3R,5R)-1-{2-[1-(cyclopropylmethyl)-1H-pyrrolo[2,3-b]pyridin-2-yl]-7-methoxy-1-{[1-(pyrazin-2-yl)-1H-pyrazol-4-yl]methyl}-1H-1,3-benzodiazole-5-carbonyl}-5-fluoropiperidin-3-amine] the figure was 53 nM. With `N[C@@H]1[C@@H]2CC[C@H]1N(C(=O)c1ccc3c(c1)nc(-c1cc4ccccc4n1CC1CC1)n3CC1CN(C(=O)c3ccncc3)C1)C2` [Example 175, (1R,4R,7R)-2-{2-[1-(cyclopropylmethyl)-1H-indol-2-yl]-1-{[1-(pyridine-4-carbonyl)azetidin-3-yl]methyl}-1H-1,3-benzodiazole-5-carbonyl}-2-azabicyclo[2.2.1]heptan-7-amine] the figure was 51 nM; with `COc1cc(C(=O)N2C[C@H]3CC[C@@H]2[C@@H]3N)cc2nc(-c3cc4cccnc4n3CC3CC3)n(C[C@@H]3CCN(c4cncnc4C#N)C3)c12` [Example 214, 5-[(3R)-3-({5-[(1R,4R,7R)-7-amino-2-azabicyclo[2.2.1]heptane-2-carbonyl]-2-[1-(cyclopropylmethyl)-1H-pyrrolo[2,3-b]pyridin-2-yl]-7-methoxy-1H-1,3-benzodiazol-1-yl}methyl)pyrrolidin-1-yl]pyrimidine-4-carbonitrile], 116 nM; with `CCS(=O)(=O)N1CC(n2c(-c3cc4cccnc4n3CC3CC3)nc3cc(C(=O)N4CC5CCC4[C@@H]5N)cc(OC)c32)C1` (stereo partly drawn) [Example 327, (1R,4R.,7R)-2-{2-[1-(cyclopropylmethyl)-1H-pyrrolo[2,3-b]pyridin-2-yl]-1-[1-(ethanesulfonyl)azetidin-3-yl]-7-methoy-1H-1,3-benzodiazole-5-carbonyl}-2-azabicyclo[2.2.1]heptan-7-amine], 57 nM.
